Reference: US20230248025A1 (priority 2020, published 2023)
Values joined by “and” are separate entries in the source; they are usually repeats but may differ in a detail not shown here. Identical values can stand only once.

Experiments:
lactic flora = assay: Lactic flora in cooked emulsified sausage during storage; assay type: cell-based
Listeria monocytogenes [1] = assay: Challenge test Listeria in fresh ground sausage; assay type: cell-based
total flora = assay: Total plate count in cooked emulsified sausage during storage; assay type: cell-based
lactic acid bacteria = assay: Endogenous lactic acid bacteria in cooked emulsified sausage model; assay type: cell-based
[2] = pH of emulsified cooked sausage modalities before and after cooking; assay type: physicochemical
[3] = Color and stability study in emulsified cooked sausage (visual, L*a*b*, hue angle, delta a*, delta E); assay type: physicochemical
Listeria monocytogenes [4] = settings: emulsified sausage; 4° C. then 8° C.
[5] = test system: Clostridium botulinum (group II type B); assay type: cell-based
toxins of C. botulinum = test system: toxins of C. botulinum; set-up: species or system Clostridium botulinum; settings: in vivo
[6] = cooked emulsified sausage, d0 to d21
[7] = emulsified sausage, modalities 3-6 also contain 3000 ppm Natstabil M2 blend1

lactate
lactic flora growth (lactic flora): normal growth
Δ log cfu/g versus untreated control (Listeria monocytogenes [1]; d8): −0.9 log cfu/g
total flora growth (total flora): normal growth

O=NO [Nitrite]
Lactic acid bacteria Day 40 (lactic acid bacteria; 14 days at 4° C., 2 h at 20° C. and 26 days at 8° C.): <5 CFU/g
Lactic acid bacteria D0 after cooking (lactic acid bacteria; inoculated sausage model): <5 CFU/g
pH after cooking d0 [2]: 6.48
pH before cooking [2]: 6.31
pH d7 [2]: 6.43
pH d14 [2]: 6.47
pH d21 [2]: 6.47
sausage color after 21 days of storage (visual) ([3]; 10 days at 4° C. and 11 days at 8° C.): slightly degraded (pale orange shade)
a* value over time [3, 6]: a* values more important than control, stable over time
b* value over time [3, 6]: slight increase of b* value at d21
meat color before cooking (visual) [3, 7]: grey
sausage color after cooking (visual) [3, 7]: light pink
lactic flora growth (lactic flora): normal growth
Δ log cfu/g versus untreated control (Listeria monocytogenes [1]; d4): < −0.5 log cfu/g
Δ log cfu/g versus untreated control (Listeria monocytogenes [1]; d8): < −0.5 log cfu/g
Listeria growth during shelf-life (Listeria monocytogenes [4]): cannot limit the growth
C. botulinum (spores + vegetative cells) D0 before cooking [5]: 250 CFU/g and 450 CFU/g and 400 CFU/g
C. botulinum (spores + vegetative cells) Day 30 [5]: <5 CFU/g and 5 CFU/g
C. botulinum (spores + vegetative cells) Day 40 [5]: 5 CFU/g and <5 CFU/g
C. botulinum (spores only) D0 after cooking [5]: <5 CFU/g and 5 CFU/g
C. botulinum (spores only) Day 21 [5]: <5 CFU/g
C. botulinum (spores only) Day 30 [5]: <5 CFU/g
C. botulinum (spores only) Day 40 [5]: <5 CFU/g
total flora growth (total flora): normal growth
Detection of toxins of C. botulinum, positive samples of 5, Day 21 (toxins of C. botulinum): 0/5
Detection of toxins of C. botulinum, positive samples of 5, Day 40 (toxins of C. botulinum): 0/5
production of C. botulinum toxin (toxins of C. botulinum): inhibit the production of toxin
